Test results published in patent publication US10196357B2, “Biaryl compositions and methods for modulating a kinase cascade” (Athenex, Inc., priority 2007, dated 2019).
Values joined by “and” are separate entries in the source; they are usually repeats but may differ in a detail not shown here. Equal values may be shown once. Read-outs that look alike come from different tables or passages of the source.

What was measured:
[1] = plasma exposure after oral administration; type: in vivo, male CD-1 mice; details: for concentration at 0.5 h / concentration at 1 h / concentration at 2 h / concentration at 5 h / AUC(0-t) / Cmax / Tmax: male, CD-1, mouse; for concentration at 0.5 h / concentration at 1 h / concentration at 2 h / concentration at 5 h: plasma, po; for AUC(0-t) / Cmax / Tmax: Plasma
Procedure: (§1) Plasma concentrations were measured in mice after oral administration. All doses were formulated in purified water. Four groups of male CD-1 mice were dosed after an overnight fast and fed 4 hours post-dose. Dosing was as follows:
(§2) Protein was precipitated with 0.25 mL acetonitrile for plasma, 0.25 mL for brain. After centrifugation, supernatant was directly injected into an LC/MS system. The limit of quantitation was 1 ng/mL using a 50 μL aliquot for plasma and a 50 μL, aliquot for brain. The standard curve was 1 to 1,000 ng/mL for both plasma and brain. HPLC conditions were as follows:
(§3) HPLC System: Shimadzu SCL-10 System
(§4) • Analytical Column: Aquasil C18 5 μm 100×2 mm column. • Column Temperature: Ambient temperature • Autosampler Temperature: Ambient temperature • Mobile Phase A) 10 mM Ammonium formate in water (pH 4). • B) Acetonitrile. • Flow Rate: 0.6 mL/min • Injection Volume: 2 μL • Gradient:
(§5) • Mass Spectrometry Conditions were as follows: • Instrument: ABI Sciex API 4000 • Mode: ESI+ • Experiment: MRM (multiple reaction monitoring) • Transitions: KX2-391: m/z 432.4→114.2 (Rt=3.11 minute) • KX2-361: m/z 406.1→253.2 (Rt=3.33 minute)

[2] = target: PKCα(h) (Homo sapiens, UniProt P17252); experiment: isolated kinase activity, PKCα; type: biochemical; details: compound @ 10 μM
Excerpt: Table 8 illustrates percent activity of isolated kinases in the presence of the AstraZeneca ATP-competitive inhibitor (KX2-328, AZ-28) or KX2-391 relative to control (untreated) isolated kinases.

[3] = tested on: PDGF receptor tyrosine kinase Y572/574; experiment: PDGF receptor autophosphorylation in cells; type: cell-based; details: c-Src527F/NIH-3T3 cells
Procedure: HT29 (colon cancer) and c-Src527F/NIH-3T3 (Src transformed) cell lines were treated with KX2-391 or with AstraZeneca's ATP competitive Src inhibitor AZ28. AZ28 serves as a positive comparator to show what a validated Src inhibitor should do in these assays. After treatment with compound, cells were lysed, subjected to PAGE and probed with a battery of antibodies. […] In addition, off-target protein phosphorylation was also investigated. Further, induction of apoptosis was evaluated via Caspase 3 cleavage. Multiple doses of each compound were tested because the trends in response to increasing drug concentration are the most reliable indicator of activity.
The same range of multiples of the GI50 for AZ28 in these two cell lines was run as a comparison.
This is thought not to be a direct Src substrate in cells.

[4] = brain exposure after oral administration; type: in vivo, male CD-1 mice; details: for AUClast: Brain; for Kp: brain and plasma, read-out: AUClast Brain/AUClast Plasma Ratio
Procedure: as §1, §2, §3, §4, §5

[5] = male, CD-1, mouse, brain, po, 10 mg/kg, single PO dose 10 mg/kg (Group 1), read-out: Brain Concentrations, Group A, B, C
[6] = male, CD-1, mouse, brain, po, 10 mg/kg, single PO dose 10 mg/kg (Group 1), read-out: Brain Concentrations, Mean

Work on `O=C(Cc1ccc(-c2ccc(OCCN3CCOCC3)cc2)cn1)NCc1ccccc1` [KX2-391] yielded a concentration at 0.5 h ([1]; 10 mg/kg, single PO dose 10 mg/kg (Group 1), 0.5 hr, read-out: Plasma Concentrations, Group A, B, C) of 779 ng/mL, a concentration at 0.5 h ([1]; 10 mg/kg, single PO dose 10 mg/kg (Group 1), 0.5 hr, read-out: Plasma Concentrations, Mean) of 871 ng/mL and a concentration at 1 h ([1]; 10 mg/kg, single PO dose 10 mg/kg (Group 1), 1 hr, read-out: Plasma Concentrations, Mean) of 363 ng/mL. For the same molecule, the concentration at 2 h ([1]; 10 mg/kg, single PO dose 10 mg/kg (Group 1), 2 hr, read-out: Plasma Concentrations, Group A, B, C) was 328 ng/mL, the concentration at 2 h ([1]; 10 mg/kg, single PO dose 10 mg/kg (Group 1), 2 hr, read-out: Plasma Concentrations, Mean) was 287 ng/mL and the concentration at 5 h ([1]; 10 mg/kg, single PO dose 10 mg/kg (Group 1), 5 hr, read-out: Plasma Concentrations, Group A, B, C) was 133 ng/mL. For the same molecule, the concentration at 5 h ([1]; 10 mg/kg, single PO dose 10 mg/kg (Group 1), 5 hr, read-out: Plasma Concentrations, Mean) was 147 ng/mL, the concentration at 0.5 h ([1]; 50 mg/kg, single PO dose 50 mg/kg (Group 2), 0.5 hr, read-out: Plasma Concentrations, Group A, B, C) was 8510 ng/mL and the concentration at 0.5 h ([1]; 50 mg/kg, single PO dose 50 mg/kg (Group 2), 0.5 hr, read-out: Plasma Concentrations, Mean) was 9720 ng/mL. For the same molecule, the concentration at 1 h ([1]; 50 mg/kg, single PO dose 50 mg/kg (Group 2), 1 hr, read-out: Plasma Concentrations, Group A, B, C) was 2370 ng/mL, the concentration at 1 h ([1]; 50 mg/kg, single PO dose 50 mg/kg (Group 2), 1 hr, read-out: Plasma Concentrations, Mean) was 2060 ng/mL and the concentration at 2 h ([1]; 50 mg/kg, single PO dose 50 mg/kg (Group 2), 2 hr, read-out: Plasma Concentrations, Group A, B, C) was 1150 ng/mL. The concentration at 2 h ([1]; 50 mg/kg, single PO dose 50 mg/kg (Group 2), 2 hr, read-out: Plasma Concentrations, Mean) was 1510 ng/mL, the concentration at 5 h ([1]; 50 mg/kg, single PO dose 50 mg/kg (Group 2), 5 hr, read-out: Plasma Concentrations, Mean) was 922 ng/mL and the AUC(0-t) ([1]; single oral dose 10 mg/kg) was 1500 ng·h/mL. It also gave a Cmax ([1]; single oral dose 10 mg/kg) of 871 ng/mL, a Tmax ([1]; single oral dose 10 mg/kg) of 30 min and an AUC(0-t) ([1]; single oral dose 50 mg/kg) of 10800 ng·h/mL. For the same molecule, the Cmax ([1]; single oral dose 50 mg/kg) was 9720 ng/mL, the Tmax ([1]; single oral dose 50 mg/kg) was 30 min and the “Plasma Concentrations, Group A, B, C” value ([1]; single PO dose 10 mg/kg (Group 1), 0.5 hr, 10 mg/kg) was 1096.62 ng/mL and 737.37 ng/mL. For the same molecule, the “Plasma Concentrations, Group A, B, C” value ([1]; single PO dose 10 mg/kg (Group 1), 2 hr, 10 mg/kg) was 271.89 ng/mL and 261.57 ng/mL, the “Plasma Concentrations, Group A, B, C” value ([1]; single PO dose 10 mg/kg (Group 1), 5 hr, 10 mg/kg) was 147.74 ng/mL and 160.62 ng/mL and the “Plasma Concentrations, Group A, B, C” value ([1]; single PO dose 50 mg/kg (Group 2), 0.5 hr, 50 mg/kg) was 8334.53 ng/mL and 12315.31 ng/mL. For the same molecule, the “Plasma Concentrations, Group A, B, C” value ([1]; single PO dose 50 mg/kg (Group 2), 1 hr, 50 mg/kg) was 2442.20 ng/mL and 1365.56 ng/mL, the “Plasma Concentrations, Group A, B, C” value ([1]; single PO dose 50 mg/kg (Group 2), 2 hr, 50 mg/kg) was 1546.09 ng/mL and 1850.18 ng/mL and the “percent activity of isolated kinase relative to control” value [2] was 111%. The “PDGF receptor Y572/574 autophosphorylation” value [3] was “Some effect”, the AUClast ([4]; single oral dose 10 mg/kg) was 631 ng·h/g and the AUClast ([4]; single oral dose 50 mg/kg) was 4211 ng·h/g. For the same molecule, the “KX2-391 Brain Concentrations, Group A” value ([4]; Male CD-1 mice, single PO dose 50 mg/kg (Group 4), 0 hr, Group A) was “BLQ (BLQ: Below Limit of Quantitation (1 ng/mL))”, the “KX2-391 Brain Concentrations, Group B” value ([4]; Male CD-1 mice, single PO dose 50 mg/kg (Group 4), 0 hr, Group B) was “BLQ (BLQ: Below Limit of Quantitation (1 ng/mL))” and the “KX2-391 Brain Concentrations, Group C” value ([4]; Male CD-1 mice, single PO dose 50 mg/kg (Group 4), 0 hr, Group C) was “BLQ (BLQ: Below Limit of Quantitation (1 ng/mL))”. The Kp ([4]; male, CD-1, mouse, single oral dose 10 mg/kg) was 0.42, the Kp ([4]; male, CD-1, mouse, single oral dose 50 mg/kg) was 0.39 and the concentration at 0.5 h [4, 5] was 398 ng/g. The concentration at 0.5 h [4, 6] was 398 ng/g, the concentration at 1 h ([4]; male, CD-1, mouse, brain, po, 10 mg/kg, single PO dose 10 mg/kg (Group 1), 1 hr, read-out: Brain Concentrations, Mean) was 170 ng/g and the concentration at 2 h [4, 5] was 126 ng/g. For the same molecule, the concentration at 2 h [4, 6] was 98.5 ng/g.
